Results taken from US4476120A, “Thiolic derivatives of erythromycin having therapeutic activity, and pharmaceutical compositions containing them” (Sigma Tau Indistrie Farmaceutiche Riunites, p.A, priority 1982, dated 1984).
≈ marks a conversion by molar mass, not a printed value.

Legend:
Staph. albus SS 03 = type: cell-based; conditions: Brain Heart Infusion, estolate and RV11-RV15 previously hydrolized, unit assumed
Staph. albus SS 04 = type: cell-based; conditions: Brain Heart Infusion, estolate and RV11-RV15 previously hydrolized, unit assumed
Staph. aureus SS 07 [1] = type: cell-based; conditions: Brain Heart Infusion, estolate and RV11-RV15 previously hydrolized, unit assumed
Staph. aureus SS 08 = type: cell-based; conditions: Brain Heart Infusion, estolate and RV11-RV15 previously hydrolized, unit assumed
Staph. aureus SS 09 = type: cell-based; conditions: Brain Heart Infusion, estolate and RV11-RV15 previously hydrolized, unit assumed
Staph. aureus SS 10 = type: cell-based; conditions: Brain Heart Infusion, estolate and RV11-RV15 previously hydrolized, unit assumed
[2] = system: Strept. haemolyticus SS 17; type: cell-based; conditions: Brain Heart Infusion, estolate and RV11-RV15 previously hydrolized, unit assumed
[3] = system: Strept. haemolyticus SS 18; type: cell-based; conditions: Brain Heart Infusion, estolate and RV11-RV15 previously hydrolized, unit assumed
Strept. faecalis SS 19 = type: cell-based; conditions: Brain Heart Infusion, estolate and RV11-RV15 previously hydrolized, unit assumed
S. lutea ATCC 9341 = type: cell-based; conditions: Brain Heart Infusion, estolate and RV11-RV15 previously hydrolized, unit assumed
B. subtilis ATCC 6633 = type: cell-based; conditions: Brain Heart Infusion, estolate and RV11-RV15 previously hydrolized, unit assumed
B. subtilis SS 127 = type: cell-based; conditions: Brain Heart Infusion, estolate and RV11-RV15 previously hydrolized, unit assumed
B. anthranis SS 08 = type: cell-based; conditions: Brain Heart Infusion, estolate and RV11-RV15 previously hydrolized, unit assumed
Br. melitensis SS 19 = type: cell-based; conditions: unit assumed
Br. abortus SS 7 = type: cell-based; conditions: Brain Heart Infusion, estolate and RV11-RV15 previously hydrolized, unit assumed
Citrobacter SS 05 = type: cell-based; conditions: Brain Heart Infusion, estolate and RV11-RV15 previously hydrolized, unit assumed
Citrobacter SS 09 = type: cell-based; conditions: Brain Heart Infusion, estolate and RV11-RV15 previously hydrolized, unit assumed
S. infantis SS 08 = type: cell-based; conditions: Brain Heart Infusion, estolate and RV11-RV15 previously hydrolized, unit assumed
E. cloacae SS 07 = type: cell-based; conditions: Brain Heart Infusion, estolate and RV11-RV15 previously hydrolized, unit assumed
E. aerogenes SS 011 = type: cell-based; conditions: Brain Heart Infusion, estolate and RV11-RV15 previously hydrolized, unit assumed
Ps. aeruginosa SS 10 = type: cell-based; conditions: Brain Heart Infusion, estolate and RV11-RV15 previously hydrolized, unit assumed
E. coli SS 04 = type: cell-based; conditions: Brain Heart Infusion, estolate and RV11-RV15 previously hydrolized, unit assumed
E. coli SS 05 = type: cell-based; conditions: Brain Heart Infusion, estolate and RV11-RV15 previously hydrolized, unit assumed
E. coli SS 07 = type: cell-based; conditions: Brain Heart Infusion, estolate and RV11-RV15 previously hydrolized, unit assumed
Pr. mirabilis SS 09 = type: cell-based; conditions: Brain Heart Infusion, estolate and RV11-RV15 previously hydrolized, unit assumed
Pr. vulgaris SS 10 = type: cell-based; conditions: Brain Heart Infusion, estolate and RV11-RV15 previously hydrolized, unit assumed
Kl. aerogenes SS 71 = type: cell-based; conditions: Brain Heart Infusion, estolate and RV11-RV15 previously hydrolized, unit assumed
H. tubercolosis SS 03 = type: cell-based; conditions: Brain Heart Infusion, estolate and RV11-RV15 previously hydrolized, unit assumed
Excerpt: (§1) In the following table I the MIC/ml values are indicated corresponding to the lowest concentration capable of inducing a complete inhibition of the bacterial development.

Kl. pneumoniae SS 04 = type: cell-based; conditions: Brain Heart Infusion, estolate and RV11-RV15 previously hydrolized, unit assumed
Excerpt: as §1

Sr. marcescens SS 03 = type: cell-based; conditions: Brain Heart Infusion, estolate and RV11-RV15 previously hydrolized, unit assumed
C. diphtheriae SS 19 = type: cell-based; conditions: Brain Heart Infusion, estolate and RV11-RV15 previously hydrolized, unit assumed
N. gonorreae SS 27 = type: cell-based; conditions: Brain Heart Infusion, estolate and RV11-RV15 previously hydrolized, unit assumed
H. influentiae SS 02 = type: cell-based; conditions: Brain Heart Infusion, estolate and RV11-RV15 previously hydrolized, unit assumed
H. pertussis SS 03 = type: cell-based; conditions: Brain Heart Infusion, estolate and RV11-RV15 previously hydrolized, unit assumed
C. albicans SS 04 = type: cell-based; conditions: Brain Heart Infusion, estolate and RV11-RV15 previously hydrolized, unit assumed
Cl. tetani SS 17 = type: cell-based; conditions: Brain Heart Infusion, estolate and RV11-RV15 previously hydrolized, unit assumed
B. anthranis SS 09 = type: cell-based; conditions: B. anthranis SS 09 (14 bis); Brain Heart Infusion; estolate and RV11-RV15 previously hydrolized; unit assumed
Acute toxicity = type: in vivo; conditions: mortality 10 days after treatment, mice
Procedure: The acute toxicity was assessed in Swiss white mice by oral and intravenous route. The LD50 values have been calculated by the methods of Probits, starting from the mortality recorded 10 days after the treatment.

Staph. aureus SS 07 [4] = test: Experimental infection induced by Staph. aureus SS 07; type: in vivo, Swiss white mice; conditions: Staph. aureus SS 07, mg/kg of erythromycin, survival after 7 days
Procedure: (§2) Swiss white mice of 20 g body weight were used, infected by parenteral administration of lethal amounts of pathogenic […] of Staph. aureus SS 07 and D. pneumoniae SS 23.
(§3) The antibiotics were administered at the time of injecting the infecting germ and 6 and 24 hours later. On the basis of the survival after 7 days, the ED50 values were determined, as reported in the following table II and III, wherein the reliability limits are indicated in brackets.

D. pneumoniae SS 23 = test: Experimental infection induced by D. pneumoniae SS 23; type: in vivo, Swiss white mice; conditions: D. pneumoniae SS 23, mg/kg of erythromycin, survival after 7 days
Procedure: as §2, §3

[5] = Mucolytic activity: obstruction of the bronchial tract after SO2 inhalation; type: in vivo, Sprague Dawley male rats; conditions: i.m., 250 mg/kg; SO2, 15 days
[6] = Histological examination of bronchi after SO2 inhalation; type: in vivo, Sprague Dawley male rats; conditions: i.m., 250 mg/kg

CC[C@H]1OC(=O)[C@H](C)[C@@H](O[C@H]2C[C@@](C)(OC)[C@@H](O)[C@H](C)O2)[C@H](C)[C@@H](O[C@@H]2O[C@H](C)C[C@H](N(C)C)[C@H]2O)[C@](C)(O)C[C@@H](C)C(=O)[C@H](C)[C@@H](O)[C@]1(C)O [RV01, erythromycin alpha-mercaptosuccinate]
MIC (Staph. albus SS 03): 0.1 µg/mL (≈ 0.136 µM)
MIC (Staph. albus SS 04): 0.05 µg/mL (≈ 0.0681 µM)
MIC (Staph. aureus SS 07 [1]): 0.05 µg/mL (≈ 0.0681 µM)
MIC (Staph. aureus SS 08): 0.025 µg/mL (≈ 0.0341 µM)
MIC (Staph. aureus SS 09): 0.1 µg/mL (≈ 0.136 µM)
MIC (Staph. aureus SS 10): 0.05 µg/mL (≈ 0.0681 µM)
MIC [2]: 3 µg/mL (≈ 4.09 µM)
MIC [3]: 1.5 µg/mL (≈ 2.04 µM)
MIC (Strept. faecalis SS 19): 0.1 µg/mL (≈ 0.136 µM)
MIC (S. lutea ATCC 9341): 0.01 µg/mL (≈ 0.0136 µM)
MIC (B. subtilis ATCC 6633): 0.01 µg/mL (≈ 0.0136 µM)
MIC (B. subtilis SS 127): 0.01 µg/mL (≈ 0.0136 µM)
MIC (B. anthranis SS 08): 0.4 µg/mL (≈ 0.545 µM)
MIC (Br. melitensis SS 19): 3 µg/mL (≈ 4.09 µM)
MIC (Br. abortus SS 7): 6 µg/mL (≈ 8.18 µM)
MIC (Citrobacter SS 05): > 200 µg/mL
MIC (Citrobacter SS 09): > 200 µg/mL
MIC (S. infantis SS 08): 100 µg/mL (≈ 136 µM)
MIC (E. cloacae SS 07): > 200 µg/mL
MIC (E. aerogenes SS 011): 50 µg/mL (≈ 68.1 µM)
MIC (Ps. aeruginosa SS 10): 200 µg/mL (≈ 273 µM)
MIC (E. coli SS 04): 50 µg/mL (≈ 68.1 µM)
MIC (E. coli SS 05): 50 µg/mL (≈ 68.1 µM)
MIC (E. coli SS 07): 25 µg/mL (≈ 34.1 µM)
MIC (Pr. mirabilis SS 09): > 200 µg/mL
MIC (Pr. vulgaris SS 10): > 200 µg/mL
MIC (Kl. aerogenes SS 71): 100 µg/mL (≈ 136 µM)
MIC (H. tubercolosis SS 03): 50 µg/mL (≈ 68.1 µM)
MIC (Kl. pneumoniae SS 04): 100 µg/mL (≈ 136 µM)
MIC (Sr. marcescens SS 03): 200 µg/mL (≈ 273 µM)
MIC (C. diphtheriae SS 19): 0.025 µg/mL (≈ 0.0341 µM)
MIC (N. gonorreae SS 27): 0.8 µg/mL (≈ 1.09 µM)
MIC (H. influentiae SS 02): 1.5 µg/mL (≈ 2.04 µM)
MIC (H. pertussis SS 03): 0.4 µg/mL (≈ 0.545 µM)
MIC (C. albicans SS 04): > 200 µg/mL
MIC (Cl. tetani SS 17): 0.2 µg/mL (≈ 0.273 µM)
MIC (B. anthranis SS 09): 0.4 µg/mL (≈ 0.545 µM)
LD50 (reliability limits) (Acute toxicity; i.v., 14400 min): 458.49 (518.06-405.77) mg.kg
LD50 (reliability limits) (Acute toxicity; os): > 3000 mg·kg
ED50 (Staph. aureus SS 07 [4]; Staphylococcus aureus, SS07, in Mus musculus, sc, 168 h, s.c., read-out: ED50 (reliability limits)): 0.95 mg/kg
ED50 (reliability limits) (Staph. aureus SS 07 [4]; os, 10080 min): 2.36 (2.68-2.08) mg/kg
ED50 (D. pneumoniae SS 23; Streptococcus pneumoniae, SS23, in Mus musculus, sc, 168 h, s.c., read-out: ED50 (reliability limits)): 52.7 mg/kg
ED50 (reliability limits) (D. pneumoniae SS 23; os, 10080 min): 108.98 (137.60-86.32) mg/kg
Partial obstruction (% incidence) [5]: 13.33%
Total obstruction, compact plug (% incidence) [5]: 26.66%
Total obstruction, nodular mass (% incidence) [5]: 6.66%
Total obstruction, pimply mass (% incidence) [5]: 13.33%
histological appearance of non obstructed bronchi ([6]; free non obstructed): practically normal appearance
histological appearance of obstructed bronchial tract ([6]; obstructed): an appearance like that of the control animals
